Reference: US9815864B2, “Substituted nucleosides, nucleotides and analogs thereof” (Alios BioPharma, Inc., priority 2013, dated 2017)
Where two headings read alike, the source gives them in different places.

Experiments:
[1] = tested on: Murine norovirus (MNV-1); assay: Norovirus MNV-1 antiviral assay (CPE reduction, CellTiter-Glo, RAW 264.7 cells); type: cell-based
[2] = tested on: NV genome in HG23 cells; assay: Norovirus replicon assay (HG23 cells, NV genome by qRT-PCR); type: cell-based, genogroup 1 norovirus
[3] = molecular target: Norovirus polymerase (NoVpol, genotype II) (Lordsdale virus, UniProt P54634); assay: biochemical; conditions: 50 nM recombinant enzyme, 2.5 hours at 30° C.; read-out: IC50
[4] = RAW264.7, 72 h, RAW 264.7 cells infected with MNV-1 (MOI of 0.001), 3 days, read-out: EC50
[5] = Norovirus, HG23 cells, reduction of NV genome vs mock-medium at 48 h, read-out: EC50
[6] = RAW 264.7 cells infected with MNV-1 (MOI of 0.001), 3 days, read-out: EC50
[7] = HG23 cells, reduction of NV genome vs mock-medium at 48 h, read-out: EC50

Sequence of Norovirus polymerase (NoVpol, genotype II) (P54634 1190-1699 limits assumed): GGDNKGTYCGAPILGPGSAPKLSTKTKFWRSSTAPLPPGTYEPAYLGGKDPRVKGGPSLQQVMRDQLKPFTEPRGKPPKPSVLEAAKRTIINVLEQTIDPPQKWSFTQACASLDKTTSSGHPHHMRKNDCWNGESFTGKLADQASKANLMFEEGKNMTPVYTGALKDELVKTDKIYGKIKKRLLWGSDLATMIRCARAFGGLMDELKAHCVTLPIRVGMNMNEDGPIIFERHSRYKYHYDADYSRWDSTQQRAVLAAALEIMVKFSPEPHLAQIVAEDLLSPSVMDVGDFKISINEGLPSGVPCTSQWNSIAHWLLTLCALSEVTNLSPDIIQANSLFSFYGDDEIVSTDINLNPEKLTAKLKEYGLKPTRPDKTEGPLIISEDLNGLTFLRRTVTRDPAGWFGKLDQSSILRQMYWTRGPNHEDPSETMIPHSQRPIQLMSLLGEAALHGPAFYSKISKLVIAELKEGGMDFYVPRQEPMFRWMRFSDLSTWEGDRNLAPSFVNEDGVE

| IC50 [3] [µM] | SMILES | EC50 [1, 4] [µM] | EC50 [2, 5] [µM] | other results |
| --- | --- | --- | --- | --- |
|  | Nc1ccn([C@@H]2O[C@@](CO)(CF)[C@@H](O)[C@H]2F)c(=O)n1 [Compound 23a] | 1 to 10 | 10 to 100 |  |
|  | [N-]=[N+]=NC[C@]1(CO)O[C@@H](n2ccc(N)nc2=O)[C@H](F)[C@@H]1O [Compound 113a] | 10 to 100 | 1 to 10 |  |
|  | CCOc1nc(N)nc2c1ncn2[C@@H]1O[C@](F)(COP(=O)(N[C@@H](C)C(=O)OC2CCCCC2)Oc2ccccc2)[C@@H](O)[C@@]1(C)O (some centres unmarked) [Compound 128a] |  |  | EC50 ([2]; Norovirus, HG23, 48 h): 1 to 10 µM |
|  | C#C[C@]1(O)[C@H](n2ccc(=O)[nH]c2=O)O[C@](F)(COP(=O)(N[C@@H](C)C(=O)OC2CCCCC2)Oc2ccccc2)[C@H]1O (some centres unmarked) [Compound 131a] |  |  | EC50 ([1]; MNV-1, RAW264.7, 72 h): 10 to 100 µM; EC50 ([2]; Norovirus, HG23, 48 h): < 1 µM |
|  | CCOc1nc(N)nc2c1ncn2[C@@H]1O[C@](F)(COP(=O)(N[C@@H](C)C(=O)OC2CCCCC2)Oc2ccccc2)[C@@H](F)[C@@]1(C)O (some centres unmarked) [Compound 134a] |  |  | EC50 ([2]; Norovirus, HG23, 48 h): 1 to 10 µM |
|  | CCOc1nc(N)nc2c1ncn2[C@@H]1O[C@](F)(CO[P@](=O)(N[C@@H](C)C(=O)OC2CCCCC2)Oc2ccccc2)[C@@H](O)[C@@]1(C)F [Compound 140a] |  |  | EC50 ([1]; MNV-1, RAW264.7, 72 h): 1 to 10 µM; EC50 ([2]; Norovirus, HG23, 48 h): < 1 µM |
|  | CCOc1nc(N)nc2c1ncn2[C@@H]1O[C@](F)(CO[P@@](=O)(N[C@@H](C)C(=O)OC2CCCCC2)Oc2ccccc2)[C@@H](O)[C@@]1(C)F [Compound 141a] |  |  | EC50 [1, 6]: 1 to 10 µM; EC50 [2, 7]: 1 to 10 µM |
|  | C#C[C@]1(O)[C@H](n2cnc3c(OCC)nc(N)nc32)O[C@](F)(CO[P@](=O)(N[C@@H](C)C(=O)OC2CCCCC2)Oc2ccccc2)[C@H]1O [Compound 142a] |  |  | EC50 [2, 7]: 1 to 10 µM |
|  | C#C[C@]1(O)[C@H](n2cnc3c(OCC)nc(N)nc32)O[C@](F)(CO[P@@](=O)(N[C@@H](C)C(=O)OC2CCCCC2)Oc2ccccc2)[C@H]1O [Compound 143a] |  |  | EC50 [2, 7]: 1 to 10 µM |
|  | CCOc1nc(N)nc2c1ncn2[C@@H]1O[C@]2(F)CO[P@](=O)(OC(C)C)O[C@H]2[C@@]1(C)O [Compound 144a] | 10 to 100 | 1 to 10 |  |
|  | CCOc1nc(N)nc2c1ncn2[C@@H]1O[C@]2(F)CO[P@@](=O)(OC(C)C)O[C@H]2[C@@]1(C)O [Compound 145a] | 10 to 100 |  |  |
| < 1 | C#C[C@]1(O)[C@H](n2cnc3c(=O)[nH]c(N)nc32)O[C@](F)(CO)[C@H]1F [Compound 146a] | 10 to 100 |  |  |
|  | C#C[C@]1(F)[C@H](n2cnc3c(OCC)nc(N)nc32)O[C@](F)(COP(=O)(N[C@@H](C)C(=O)OC2CCCCC2)Oc2ccccc2)[C@H]1O (some centres unmarked) [Compound 147a] |  |  | EC50 ([2]; Norovirus, HG23, 48 h): < 1 µM |
|  | C#C[C@]1(F)[C@H](n2cnc3c(OCC)nc(N)nc32)O[C@](F)(COP(=O)(N[C@@H](C)C(=O)OC2CCCCC2)Oc2ccccc2)[C@H]1O (some centres unmarked) [Compound 148a] |  |  | EC50 ([2]; HG23 cells, reduction of NV genome vs mock-medium at 48 h): < 1 µM |
|  | CCOc1nc(N)nc2c1ncn2[C@@H]1O[C@]2(F)CO[P@](=O)(OC(C)C)O[C@H]2[C@@]1(C)F [Compound 149a] |  |  | EC50 [1, 6]: 10 to 100 µM; EC50 [2, 7]: 1 to 10 µM |
|  | CCOc1nc(N)nc2c1ncn2[C@@H]1O[C@](CF)(COP(=O)(N[C@@H](C)C(=O)OC2CCCCC2)Oc2ccccc2)[C@@H](O)[C@@]1(C)O (some centres unmarked) [Compound 153a] |  |  | EC50 ([2]; Norovirus, HG23, 48 h): < 1 µM |
|  | CC(C)OC(=O)OCOP(=O)(OCOC(=O)OC(C)C)OC[C@@]1(CF)O[C@@H](n2ccc(=O)[nH]c2=O)[C@](C)(O)[C@@H]1O [Compound 156a] | 1 to 10 | < 1 |  |
|  | C#C[C@@]1(O)[C@H](O)[C@@](CF)(COP(=O)(OCOC(=O)OC(C)C)OCOC(=O)OC(C)C)O[C@H]1n1cnc2c(N)ncnc21 [Compound 168a] | 10 to 100 | < 1 |  |
|  | Nc1ccn([C@@H]2O[C@@](CO)(CF)[C@@H](O)C2(F)F)c(=O)n1 [Compound 179a] | < 1 | 1 to 10 |  |
|  | CCOc1nc(N)nc2c1ncn2[C@@H]1O[C@](F)(COP(=O)(OCOC(=O)OC(C)C)OCOC(=O)OC(C)C)[C@@H](O)[C@@]1(C)F [Compound 188a] | 1 to 10 | < 1 |  |
|  | C#C[C@]1(O)[C@H](n2ccc(=O)[nH]c2=O)O[C@](F)(COP(=O)(OCOC(=O)OC(C)C)OCOC(=O)OC(C)C)[C@H]1O [Compound 208a] | 10 to 100 | < 1 |  |
|  | CCOc1nc(N)nc2c1ncn2[C@@H]1O[C@](F)(COP(=O)(OCOC(=O)OC(C)C)OCOC(=O)OC(C)C)[C@@H](O)[C@@]1(C)O [Compound 209a] | 1 to 10 | < 1 |  |

| IC50 [3] [µM] | SMILES | EC50 [1, 4] [µM] | EC50 [2, 5] [µM] | other results |
| --- | --- | --- | --- | --- |
|  | [N-]=[N+]=N[C@]1(CO)O[C@@H](n2ccc(N)nc2=O)[C@@H](O)[C@@H]1O [Compound 266a] |  | 1 to 10 |  |
|  | Nc1ccn([C@@H]2O[C@@](CO)(CCl)[C@@H](O)[C@H]2O)c(=O)n1 [Compound 271a] | 10 to 100 | 10 to 100 |  |
|  | C#C[C@@]1(O)[C@H](O)[C@@H](CO)O[C@H]1n1ccc2c(N)ncnc21 [Compound 291a] | < 1 | < 1 |  |
| 1 to 10 | C#C[C@@]1(n2cnc3c(=O)[nH]c(N)nc32)O[C@H](COP(=O)(O)OP(=O)(O)OP(=O)(O)O)[C@@H](O)[C@H]1F [Compound 335a] |  |  |  |
|  | C[C@@]1(O)[C@H](O)[C@](CO)(CF)O[C@H]1n1ccc(N)nc1=O [Compound 338a] |  | 10 to 100 |  |
| 1 to 10 | C[C@]1(O)[C@H](n2ccc(N)nc2=O)O[C@](C)(COP(=O)(O)OP(=O)(O)OP(=O)(O)O)[C@H]1O [Compound 340a] |  |  |  |
| < 1 | C#C[C@@]1(O)[C@H](O)[C@@](CCl)(COP(=O)(O)OP(=O)(O)OP(=O)(O)O)O[C@H]1n1cnc2c(N)ncnc21 [Compound 342a] |  |  |  |
| < 1 | C[C@@]1(Cl)[C@H](O)[C@@H](COP(=O)(O)OP(=O)(O)OP(=O)(O)O)O[C@H]1n1cnc2c(=O)[nH]c(N)nc21 [Compound 343a] |  |  |  |
|  | C#C[C@@]1(O)[C@H](O)[C@](CO)(CCl)O[C@H]1n1ccc(=O)[nH]c1=O [Compound 344a] |  | 10 to 100 |  |
| 1 to 10 | C[C@@]1(O)[C@H](O)[C@@](CN=[N+]=[N-])(COP(=O)(O)OP(=O)(O)OP(=O)(O)O)O[C@H]1n1ccc(=O)[nH]c1=O [Compound 346a] |  |  |  |
| < 1 | C=C[C@@]1(O)[C@H](O)[C@@](CF)(COP(=O)(O)OP(=O)(O)OP(=O)(O)O)O[C@H]1n1ccc(=O)[nH]c1=O [Compound 348a] |  |  |  |
| < 1 | CC#C[C@@]1(O)[C@H](O)[C@@](CF)(COP(=O)(O)OP(=O)(O)OP(=O)(O)O)O[C@H]1n1ccc(=O)[nH]c1=O [Compound 349a] |  |  |  |
| 1 to 10 | C=CC[C@@]1(O)[C@H](O)[C@@](CF)(COP(=O)(O)OP(=O)(O)OP(=O)(O)O)O[C@H]1n1ccc(=O)[nH]c1=O [Compound 350a] |  |  |  |
| < 1 | C[C@@]1(O)[C@H](O)[C@@](CF)(COP(=O)(O)OP(=O)(O)OP(=O)(O)O)O[C@H]1n1ccc2c(N)ncnc21 [Compound 351a] |  |  |  |
| 1 to 10 | O=c1ccn([C@@H]2O[C@](CF)(COP(=O)(O)OP(=O)(O)OP(=O)(O)O)[C@@H](O)[C@]2(O)CF)c(=O)[nH]1 [Compound 353a] |  |  |  |
| < 1 | C[C@@]1(O)[C@H](O)[C@@](CF)(COP(=O)(O)OP(=O)(O)OP(=O)(O)O)O[C@H]1n1ccc(N)nc1=O [Compound 354a] |  |  |  |
| < 1 | Nc1ccn([C@@H]2O[C@](CF)(COP(=O)(O)OP(=O)(O)OP(=O)(O)O)[C@@H](O)[C@]2(O)CF)c(=O)n1 [Compound 355a] |  |  |  |
|  | N#C[C@@]1(n2ccc(N)nc2=O)O[C@@](CO)(CF)[C@@H](O)[C@H]1O [Compound 376a] |  |  | EC50 [1, 6]: 10 to 100 µM |
|  | [N-]=[N+]=N[C@]1(CO)O[C@@H](n2ccc(N)nc2=O)C(F)(F)[C@@H]1O [Compound 380a] |  | 1 to 10 |  |
|  | [N-]=[N+]=N[C@]1(CO)O[C@@H](n2ccc(N)nc2=O)[C@H](O)[C@@H]1O [Compound 381a] |  | 10 to 100 |  |
| < 1 | [N-]=[N+]=N[C@]1(COP(=O)(O)OP(=O)(O)OP(=O)(O)O)O[C@@H](n2ccc(N)nc2=O)[C@H](O)[C@@H]1O [Compound 383a] |  |  |  |
